As usually defined, the Emax is the size of the effect at its maximum, as opposed to the concentration needed.

Test [1] deals with T1, 5-HT2A (Homo sapiens, UniProt P28223). As to the kind of experiment: Ca2+ flux assay, 5-HT2A. Details: expressed in transfected cells. Type of test: cell-based.
For test [2], the target named is 5-HT5a (Homo sapiens, UniProt P47898). Kind of test: Competitive radioligand binding (NIMH PDSP). The procedure:
(§1) Method 1: Competitive binding experiments were performed by the National Institute of Mental Health Psychoactive Drug Screening Program (NIMH PDSP) using described methods or 5-HT2A experiments performed using [3H]-ketanserin displacement in human 5-HT2A expressing membranes. Target compounds were dissolved in DMSO and an initial screen performed to assess displacement of the radioligand from target receptors at a concentration of 10,000 nM. […] For the Ki experiments, compounds were always tested in triplicate on separate plates. Each plate also contained a known ligand for the receptor as a positive control.

The target in test [3] is T1, 5-HT2A. As to the kind of experiment: Competitive radioligand binding (NIMH PDSP). As to the method:
as §1

For test [4], the target named is 5-HT7 (Homo sapiens, UniProt P34969). Kind of test: Competitive radioligand binding (NIMH PDSP). The procedure: as §1
Test [5] has as its target 5-HT1B (Homo sapiens, UniProt P28222). Kind of test: Competitive radioligand binding (NIMH PDSP). The procedure: as §1
Test [6] deals with 5-HT1D (Homo sapiens, UniProt P28221). Kind of test: Competitive radioligand binding (NIMH PDSP). The procedure: as §1
Test [7] addresses T2, 5-HT1A (Homo sapiens, UniProt P08908).
T2 sequence (P08908 1-422): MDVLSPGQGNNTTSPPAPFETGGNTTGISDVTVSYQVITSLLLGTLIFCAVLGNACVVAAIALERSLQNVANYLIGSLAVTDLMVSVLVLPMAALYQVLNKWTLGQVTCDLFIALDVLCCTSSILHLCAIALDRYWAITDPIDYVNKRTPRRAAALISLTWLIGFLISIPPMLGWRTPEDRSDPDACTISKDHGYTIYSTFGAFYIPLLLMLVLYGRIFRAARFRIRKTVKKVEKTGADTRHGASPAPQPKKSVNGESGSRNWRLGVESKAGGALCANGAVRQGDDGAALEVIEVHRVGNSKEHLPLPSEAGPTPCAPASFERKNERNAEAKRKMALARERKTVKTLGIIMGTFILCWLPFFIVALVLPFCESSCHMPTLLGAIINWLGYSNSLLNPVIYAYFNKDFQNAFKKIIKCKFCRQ
Kind of test: Competitive radioligand binding (NIMH PDSP). As to the method: as §1

For test [8], the target named is 5-HT6 (Homo sapiens, UniProt P50406). Kind of test: Competitive radioligand binding (NIMH PDSP). The procedure: as §1
The target of test [9] is 5-HT1e (Homo sapiens, UniProt P28566). As to the kind of experiment: Competitive radioligand binding (NIMH PDSP). The procedure: as §1
Test [10] deals with T3, 5-HT3 (Homo sapiens, UniProt P46098).
T3 sequence (P46098 24-478): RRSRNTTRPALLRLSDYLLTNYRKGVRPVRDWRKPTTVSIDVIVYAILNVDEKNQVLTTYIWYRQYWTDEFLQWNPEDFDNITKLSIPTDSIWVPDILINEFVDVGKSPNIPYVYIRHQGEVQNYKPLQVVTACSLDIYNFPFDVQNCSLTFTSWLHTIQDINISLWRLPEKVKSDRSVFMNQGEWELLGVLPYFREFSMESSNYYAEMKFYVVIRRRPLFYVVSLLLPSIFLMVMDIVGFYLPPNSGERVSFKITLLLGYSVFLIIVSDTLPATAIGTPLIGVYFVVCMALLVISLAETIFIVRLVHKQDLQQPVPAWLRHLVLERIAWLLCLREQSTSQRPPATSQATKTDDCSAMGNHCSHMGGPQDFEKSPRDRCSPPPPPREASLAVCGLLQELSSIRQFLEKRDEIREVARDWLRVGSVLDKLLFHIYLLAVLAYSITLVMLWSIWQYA
As to the kind of experiment: Competitive radioligand binding (NIMH PDSP). As to the method:
as §1

The target of test [11] is T4, 5-HT2C (Homo sapiens, UniProt P28335).
T4 sequence (P28335 33-458): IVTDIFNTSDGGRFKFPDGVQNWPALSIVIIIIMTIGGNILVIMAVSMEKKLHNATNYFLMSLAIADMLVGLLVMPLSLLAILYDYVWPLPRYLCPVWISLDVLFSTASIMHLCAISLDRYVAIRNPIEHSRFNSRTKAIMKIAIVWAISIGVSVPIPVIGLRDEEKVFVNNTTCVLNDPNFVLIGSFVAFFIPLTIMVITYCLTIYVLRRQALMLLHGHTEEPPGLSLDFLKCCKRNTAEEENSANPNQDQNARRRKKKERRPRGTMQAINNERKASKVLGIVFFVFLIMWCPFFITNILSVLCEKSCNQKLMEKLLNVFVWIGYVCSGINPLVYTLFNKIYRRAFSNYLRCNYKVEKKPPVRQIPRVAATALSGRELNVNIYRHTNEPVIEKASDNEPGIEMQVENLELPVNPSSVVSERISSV
Kind of test: Competitive radioligand binding (NIMH PDSP). Further details: expressed in transfected cells. The procedure:
as §1

Test [12] has as its target T5, 5-HT2B (Homo sapiens, UniProt P41595). Kind of test: Competitive radioligand binding (NIMH PDSP). Further details: expressed in transfected cells. The procedure:
as §1

Test [13] deals with T4, 5-HT2C. Kind of test: Ca2+ flux assay, 5-HT2C. Further details: expressed in transfected cells. Type of test: cell-based.
The test system of test [14] is 5-HT2A. As to the kind of experiment: Ca2+ flux assay, 5-HT2A. The format is cell-based, human. The settings on record: Gq/11 Ca2+ mobilization; higher number = skewed towards 5-HT2A. (In general: Calcium flux is commonly read through the fluorescence of an indicator in the cells.)
For test [15], the target named is T5, 5-HT2B. As to the kind of experiment: Ca2+ flux assay, 5-HT2B. Details: expressed in transfected cells. The settings on record: Ca2+ flux. The format is cell-based.
In test [16] the target is T1, 5-HT2A. Kind of test: cell-based. The settings on record: for Emax: read-out: 5-HT2A β-arrestin Emax (% 5-HT), BRET, mean ± SEM. Further details: expressed in transfected cells; host or cells: HEK293T, transient. In general terms: In BRET a luciferase serves as donor, and the signal depends on an acceptor being close.
The target of test [17] is T1, 5-HT2A. As to the kind of experiment: cell-based. Details: expressed in transfected cells; host or cells: HEK293T, transient. The settings on record: for Emax: read-out: 5-HT2A Gq Emax (% 5-HT), BRET, mean ± SEM.
For test [18], the target named is T1, 5-HT2A. Kind of test: [3H]-ketanserin displacement, 5-HT2A membranes. The format is binding. Further details: ES-313-M400UA (membranes); host or cells: CHO-K1. The settings on record: [3H]-ketanserin displacement (n = 2); read-out: 5-HT2A pKi Mean ± SEM (converted).
The test system of test [19] is mice. As to the kind of experiment: PCP-induced locomotor hyperactivity. Type of test: in vivo, mouse. The settings on record: PCP 5 mg/kg IP, 25N-N1-Nap 3 mg/kg SC, M100907 0.03 mg/kg SC. The procedure:
(A). DOI, a hallucinogen and 5-HT2A agonist, was administered IP 10 min after SC administration of vehicle or test drug. A and then HTR activity was assessed for 30 minutes. *p<0.001, significant difference vs. vehicle (B). Vehicle or the NMDA receptor antagonist PCP (5 mg/kg) was injected IP 10 min after SC administration of vehicle or 25N-NB1-Nap (16), and then the mice were placed in the test chambers 10 min later for a 60-min assessment of locomotor activity. (C). […] Mice were treated with vehicle or M100907 (0.03 mg/kg SC) 10 min prior to vehicle or PCP (5 mg/kg IP): animals were placed in the test chambers 10 min after treatment with PCP. Animals were tested for 60 min. *p<0.01 vs. vehicle: ^#p<0.01 vs. PCP alone.
Male C57BL/6J mice (6-8 weeks old) from Jackson Labs (Bar Harbor, ME, USA) were used for the behavioral experiments. The mice were housed on a reversed light-dark cycle (lights on at 1900 h, off at 0700 h) in an AAAC-approved vivarium at the University of California San Diego. Mice were housed up to four per cage in a climate-controlled room and with food and water provided ad libitum except during behavioral testing. Testing was performed between 1000 and 1800 h (during the dark phase of the light-dark cycle). The studies were conducted in accordance with National Institutes Health (NIH) guidelines and were approved by the University of California San Diego Institutional Animal Care and Use Committee.
Edelfosine, DOI, R—(−)-DOI, and PCP were injected IP (5 mL/kg): 25N—NB and its derivatives were injected SC (5 mL/kg or 10 mL/kg): YM-254,890 was injected into the lateral ventricle (2 μL) over 1 min.
The mouse behavioral pattern monitor (BPM) was used to assess locomotor activity. Each mouse BPM chamber (San Diego Instruments, San Diego, CA, USA) is a transparent Plexiglas box with an opaque 30×60 cm floor, enclosed in a ventilated isolation box. The position of the mouse in x.y coordinates is recorded by a grid of 12×24 infrared photobeams located 1 cm above the floor. A second row of 16 photobeams (parallel to the long axis of the chamber, located 2.5 cm above the floor) is used to detect rearing behavior. Holepoking behavior is detected by 11 1.4-cm holes that are situated in the walls (3 holes in each long wall, 2 holes in each short wall) and the floor ([…]); each hole is equipped with an infrared photobeam. The status of each photobeam is sampled every 55 ms and recorded for offline analysis. Locomotor activity was quantified as distance traveled, which was analyzed in 20-min blocks using a three-way ANOVA, with pretreatment and treatment as between subject variables and time as a within-subject variable. Tukey's studentized range method was used for post hoc comparisons.

[20] abbreviates: BRET, mean ± SEM, read-out: 5-HT2A β-arrestin recruitment pEC50 (converted).

T1 sequence (P28223 whole entry): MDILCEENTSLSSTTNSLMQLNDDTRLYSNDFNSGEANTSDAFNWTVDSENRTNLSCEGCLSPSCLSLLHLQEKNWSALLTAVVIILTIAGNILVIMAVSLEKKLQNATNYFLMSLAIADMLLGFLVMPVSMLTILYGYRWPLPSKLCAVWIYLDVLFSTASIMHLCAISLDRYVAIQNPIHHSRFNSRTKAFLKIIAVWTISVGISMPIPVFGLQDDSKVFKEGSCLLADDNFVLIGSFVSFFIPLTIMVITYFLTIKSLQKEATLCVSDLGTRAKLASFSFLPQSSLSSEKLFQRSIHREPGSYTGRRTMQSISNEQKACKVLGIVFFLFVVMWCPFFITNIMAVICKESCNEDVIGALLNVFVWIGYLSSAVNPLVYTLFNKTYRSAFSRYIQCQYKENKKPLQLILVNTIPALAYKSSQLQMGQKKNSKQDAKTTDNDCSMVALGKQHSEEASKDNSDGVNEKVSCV
T5 sequence (P41595 whole entry): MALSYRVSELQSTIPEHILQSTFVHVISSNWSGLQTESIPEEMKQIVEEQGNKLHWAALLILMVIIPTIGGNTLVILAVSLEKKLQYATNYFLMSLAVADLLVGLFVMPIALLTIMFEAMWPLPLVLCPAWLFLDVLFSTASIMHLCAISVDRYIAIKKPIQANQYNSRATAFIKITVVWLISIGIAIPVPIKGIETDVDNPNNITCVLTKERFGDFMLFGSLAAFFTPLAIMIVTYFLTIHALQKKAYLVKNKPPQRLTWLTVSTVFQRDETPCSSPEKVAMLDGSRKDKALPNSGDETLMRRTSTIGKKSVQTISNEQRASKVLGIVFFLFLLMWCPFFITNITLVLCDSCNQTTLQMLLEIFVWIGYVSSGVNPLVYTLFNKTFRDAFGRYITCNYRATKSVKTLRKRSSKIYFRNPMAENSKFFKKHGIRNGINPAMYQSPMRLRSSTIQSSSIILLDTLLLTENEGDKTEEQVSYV
Chain of 5-HT5a (P47898 whole entry, species assumed): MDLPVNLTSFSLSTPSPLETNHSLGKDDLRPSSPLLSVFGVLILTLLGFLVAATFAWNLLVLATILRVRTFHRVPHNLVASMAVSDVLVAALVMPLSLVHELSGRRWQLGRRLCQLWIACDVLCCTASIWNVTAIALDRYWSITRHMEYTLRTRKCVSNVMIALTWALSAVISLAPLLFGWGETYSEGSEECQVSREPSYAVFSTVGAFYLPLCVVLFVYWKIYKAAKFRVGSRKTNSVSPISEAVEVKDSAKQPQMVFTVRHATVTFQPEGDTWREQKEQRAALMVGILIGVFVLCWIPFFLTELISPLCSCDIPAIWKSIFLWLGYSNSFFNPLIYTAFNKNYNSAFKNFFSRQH
Chain of 5-HT7 (P34969 whole entry, species assumed): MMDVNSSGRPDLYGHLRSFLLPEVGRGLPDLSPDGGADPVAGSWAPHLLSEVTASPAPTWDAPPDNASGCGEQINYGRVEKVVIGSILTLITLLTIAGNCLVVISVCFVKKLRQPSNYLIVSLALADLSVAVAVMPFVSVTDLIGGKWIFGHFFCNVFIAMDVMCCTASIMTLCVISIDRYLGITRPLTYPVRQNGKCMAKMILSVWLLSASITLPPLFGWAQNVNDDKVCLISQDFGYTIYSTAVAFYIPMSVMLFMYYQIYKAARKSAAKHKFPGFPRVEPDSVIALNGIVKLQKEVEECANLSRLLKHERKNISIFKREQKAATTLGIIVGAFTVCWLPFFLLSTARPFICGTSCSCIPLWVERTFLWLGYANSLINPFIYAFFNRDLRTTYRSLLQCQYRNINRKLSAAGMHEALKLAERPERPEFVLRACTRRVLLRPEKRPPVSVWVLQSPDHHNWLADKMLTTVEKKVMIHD
Chain of 5-HT1e (P28566 whole entry, species assumed): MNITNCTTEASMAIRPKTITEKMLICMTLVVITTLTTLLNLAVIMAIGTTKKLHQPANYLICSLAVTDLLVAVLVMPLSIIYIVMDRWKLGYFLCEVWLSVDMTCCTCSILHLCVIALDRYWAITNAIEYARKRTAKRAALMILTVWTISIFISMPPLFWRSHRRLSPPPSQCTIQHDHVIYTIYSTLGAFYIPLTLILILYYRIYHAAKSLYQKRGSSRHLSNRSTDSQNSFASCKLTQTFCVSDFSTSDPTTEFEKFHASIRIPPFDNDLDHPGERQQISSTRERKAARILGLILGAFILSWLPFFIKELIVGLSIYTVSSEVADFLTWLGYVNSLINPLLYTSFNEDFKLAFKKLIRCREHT
Chain of 5-HT6 (P50406 whole entry, species assumed): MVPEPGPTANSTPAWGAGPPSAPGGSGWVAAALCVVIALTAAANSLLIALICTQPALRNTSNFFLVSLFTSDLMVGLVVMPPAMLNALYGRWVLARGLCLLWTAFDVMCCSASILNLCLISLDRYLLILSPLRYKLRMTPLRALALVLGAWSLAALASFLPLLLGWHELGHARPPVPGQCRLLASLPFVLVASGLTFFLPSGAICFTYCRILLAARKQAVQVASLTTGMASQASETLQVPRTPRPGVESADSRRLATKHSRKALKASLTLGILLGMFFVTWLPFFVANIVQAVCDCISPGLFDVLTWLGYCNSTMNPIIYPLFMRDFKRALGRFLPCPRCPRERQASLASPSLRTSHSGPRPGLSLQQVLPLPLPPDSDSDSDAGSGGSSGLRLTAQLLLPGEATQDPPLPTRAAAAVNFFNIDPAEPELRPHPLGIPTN
Chain of 5-HT1D (P28221 whole entry, species assumed): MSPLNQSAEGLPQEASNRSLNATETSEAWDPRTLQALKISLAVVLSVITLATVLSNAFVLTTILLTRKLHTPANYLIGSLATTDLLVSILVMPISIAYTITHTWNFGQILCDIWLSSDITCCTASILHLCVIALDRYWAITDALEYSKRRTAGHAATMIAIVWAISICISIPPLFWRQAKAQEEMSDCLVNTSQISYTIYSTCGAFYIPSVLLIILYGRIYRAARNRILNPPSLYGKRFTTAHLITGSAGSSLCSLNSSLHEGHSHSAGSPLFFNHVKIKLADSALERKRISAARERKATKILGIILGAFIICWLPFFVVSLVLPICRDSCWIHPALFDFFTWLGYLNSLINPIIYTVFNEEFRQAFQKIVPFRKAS
Chain of 5-HT1B (P28222 whole entry, species assumed): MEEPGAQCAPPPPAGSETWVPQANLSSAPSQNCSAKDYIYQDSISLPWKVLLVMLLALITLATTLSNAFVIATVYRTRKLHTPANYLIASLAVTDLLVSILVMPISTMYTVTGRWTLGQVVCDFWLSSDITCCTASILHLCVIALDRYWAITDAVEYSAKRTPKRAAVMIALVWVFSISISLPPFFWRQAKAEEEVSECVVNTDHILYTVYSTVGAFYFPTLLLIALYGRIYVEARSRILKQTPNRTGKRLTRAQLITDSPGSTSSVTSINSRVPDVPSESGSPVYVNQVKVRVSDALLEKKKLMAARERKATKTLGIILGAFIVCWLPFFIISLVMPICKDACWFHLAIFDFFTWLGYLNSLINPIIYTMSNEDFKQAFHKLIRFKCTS

Compound `COc1ccc(OC)c(CNCCc2cc(OC)c([N+](=O)[O-])cc2OC)c1` [25N-NB-2,5-DiMeO (20)] displayed an EC50 in [1] (5-HT2A EC50, nM, Ca2+ flux) of 133 nM. In addition, the Emax in [1] (read-out: 5-HT2A Emax % 5-HT, Ca2+ flux) was 72 ± 1%; in [13] (read-out: 5-HT2C Emax % 5-HT) it was < 10%; in test [15] (read-out: 5-HT2B Emax % 5-HT) it was < 10%. Moreover, the Ki in [2] was > 10000 nM; in [3] it was 229 nM; in test [4] it was > 10000 nM; in test [5], > 10000 nM; in test [6], > 10000 nM; in test [7] it was 513 nM. The Ki in [8] is > 10000 nM; in [9], > 10000 nM; in [10] it was > 10000 nM; in test [11], 145 nM; in [12], 135 nM. For the same compound, in test [13], the “5-HT2C EC50, nM” value is reported as “No activity”. The “5-HT2A/5-HT2c Selectivity Factor ΔLog(Emax/EC50)” value in test [14] is recorded as 5-HT2A Selective. The “5-HT2B EC50, nM” value in test [15] is reported as “No activity”.
Regarding `COc1cc(OC)c(OC)cc1CCNCc1cccc2c1oc1ccccc12` [(74), N-(dibenzo-[b, d]-furan-4-ylmethyl)-2-(2,4,5-trimethoxyphenyl)-ethan-1-amine], the EC50 was 16.2 nM in [16] (setting [20]) and 81.3 nM in test [17] (BRET, mean ± SEM, read-out: 5-HT2A Gq dissociation pEC50 (converted)). Also, the Emax is 68.3 ± 3.4% in [16] and 40.2 ± 1.9% in test [17]. Also, in test [18], the Ki was 67.6 nM.
As to `COc1cc(OC)c(OC)cc1CCNCc1ccc(-c2ccccc2)o1` [(75)], in test [16], the EC50 was 891 nM and the Emax was determined as 50.3 ± 4.7%. In addition, in test [17] (BRET, mean ± SEM), the “5-HT2A Gq dissociation pEC50” value was “No activity”. Further, the Emax in test [17] is < 10%. Besides, the Ki in test [18] was 309 nM.
With `COc1cc(OC)c(OC)cc1CCNCc1ccc(-c2ccccc2)s1` [(76), N-((5-phenylthiophen-2-yl)methyl)-2-(2,4,5-trimethoxyphenyl)-ethan-1-amine], the figures for the EC50 in test [16] (setting [20]) and in [17] were 91.2 nM and 1070 nM, respectively. For the same compound, the maximum response (Emax) in [16] stood at 78 ± 4%; in test [17], 57.4 ± 4.6%. Further, in test [18], the Ki was 447 nM.
As for `COc1cc(OC)c(OC)cc1CCNCc1ccc(-c2cccs2)s1` [(77)], the Emax was 82.5 ± 4.2% in test [16] and 49 ± 5.1% in [17]. In addition, in test [18], the Ki was 324 nM.
Consider `COc1cc(OC)c(OC)cc1CCNCc1cccc(OCc2ccccc2)c1` [(78)], for which the Emax in [16] is 50.3 ± 4.1%; in test [17], 32.8 ± 4.5%. For the same compound, the Ki in test [18] is 251 nM.
In test [16], `COc1cccc(COc2ccccc2CNCCc2cc(OC)c(OC)cc2OC)c1` [(79)] had an EC50 of 1120 nM. Moreover, the results for the Emax in test [16] and in [17] were 33 ± 4.8% and < 10%, respectively. Moreover, in [17] (BRET, mean ± SEM), the “5-HT2A Gq dissociation pEC50” value is on record as “No activity”. Further, in test [18], the Ki is 158 nM.
As to `COc1cc(OC)c(OC)cc1CCNCc1c[nH]nc1-c1ccccc1` [(80)], the EC50 in test [16] (setting [20]) is 79.4 nM; in [17], 537 nM. Further, the Emax in [16] was 102 ± 3.7%; in [17] it was 31.8 ± 2.3%. Moreover, in test [18], the Ki was 302 nM.
For `COc1cccc([C@H](O)C2CCN(CCc3ccc(F)cc3)CC2)c1OC` [Compound M100907, reference compound], the “Effect on PCP-induced locomotor hyperactivity” value in test [19] is on record as “blocks PCP induced hyperactivity”; in test [19] (listed as M100,907), “blocked”.
